In patent publication EP3381898A1, “SYMMETRICAL TRIS-ARYL-AMIDE DERIVATIVES AND THEIR USE AS ANTI-HEPARANASE” (priority 2017, dated 2018):
Structures can show the parent of a compound that is named as a salt.

Target: T1, heparanase (Homo sapiens, UniProt Q9Y251)
T1 sequence (Q9Y251 158-543 limits assumed): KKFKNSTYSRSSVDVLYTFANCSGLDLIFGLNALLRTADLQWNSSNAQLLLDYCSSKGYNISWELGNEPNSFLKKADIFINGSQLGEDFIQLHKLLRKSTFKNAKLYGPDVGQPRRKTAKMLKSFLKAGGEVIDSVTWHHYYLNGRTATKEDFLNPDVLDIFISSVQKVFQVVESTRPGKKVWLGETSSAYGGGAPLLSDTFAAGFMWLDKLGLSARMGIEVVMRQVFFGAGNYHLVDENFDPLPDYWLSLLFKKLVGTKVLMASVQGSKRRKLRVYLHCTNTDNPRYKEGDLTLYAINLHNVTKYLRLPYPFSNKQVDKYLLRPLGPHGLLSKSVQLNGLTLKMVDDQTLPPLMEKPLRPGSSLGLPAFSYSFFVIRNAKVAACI
T1 sequence (Q9Y251 36-109 limits assumed): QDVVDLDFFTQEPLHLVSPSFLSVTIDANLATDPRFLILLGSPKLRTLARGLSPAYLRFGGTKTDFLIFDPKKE
Assay: AGA*IA assay: heparanase-catalyzed fondaparinux cleavage, colorimetric (WST-1)
Format: biochemical
Conditions: Table 1; range activity classes, AGA*IA test on Fondaparinux; read-out: AGAIA assay IC50
Procedure: All compounds were tested in a simple, accurate and robust microplate assay based on the cleavage of the synthetic heparin fragment, the pentasaccharide Fondaparinux (AGA*IA). This assay was originally developed by Hammond and coworkers (Hammond E, Li CP, Ferro V. Development of a colorimetric assay for heparanase activity suitable for kinetic analysis and inhibitor screening. Anal. Biochem. 396(1), 112-116 (2010)), where Fondaparinux corresponds to the methyl glycoside of the antithrombin III (ATIII)-activating pentasaccharide sequence of heparin. Fondaparinux is cleaved by heparanase to generate a reducing disaccharide, which can be quantitatively measured via a colorimetric or a fluorescence assay, the last by the fluorescent sensor polymer-H [Schiemann S, Lühn S, Alban S. Development of both colorimetric and fluorescence heparinase activity assays using fondaparinux as substrate. Anal. Biochem. 427(1), 82-89 (2012)].
The assay measures the appearance of the disaccharide product of heparanase-catalyzed fondaparinux cleavage colorimetrically using the tetrazolium salt WST-1. Assay was essentially performed as described with minor modifications. Briefly, NUNC ELISA 96-well plates were pre-treated with a solution of 4% BSA (bovin serum albumin) in phosphate-buffered saline containing 0.05% Tween 20 (PBST), for 2 h at 37°C, then washed three times with PBST, dried by tapping on paper towel and stored at -20°C. Before use, once again, the plates were washed with PBST.
Assay was carried out with 100 µl/well of assay solution containing 40 mM sodium acetate buffer (pH 5.0), 100 µM fondaparinux, 2.5 nM heparanase and serial dilutions of test compounds (tested in triplicate). Plates were sealed with adhesive tape and incubated, in the dark, for 3 h at 37°C, followed by development with 1.69 mM of the tetrazolium salt WST-1 solution in 0.1 M NaOH, for 1 h at 60°C. Then, the absorbance at 560 nm was measured through a microplate reader (Victor 3, Perkin Elmer).
Finally, the measurements were corrected by subtracting both the reagent background and the inner absorbance value of test compound.

Row | Compound | IC50 [µM]
1 | CC(C)CC(NC(=O)Cc1cccc(NC(=O)c2cc(NC(=O)c3cccc(NC(=O)Nc4cccc(C(=O)Nc5cc(C(=O)Nc6cccc(CC(=O)NC(CC(C)C)C(=O)O)c6)n(C)c5)c4)c3)cn2C)c1)C(=O)O (stereo not drawn) [Compound 12a, 2,2'-{carbonylbis[imino-3,1-phenylenecarbonylimino(1-methyl-1H-pyrrole-4,2-diyl)carbonylimino-3,1-phenylene(1-oxoethane-2,1-diyl)imino]}bis(4-methylpentanoic acid)] | 1 to 20
2 | Cn1cc(NC(=O)c2cccc(NC(=O)Nc3cccc(C(=O)Nc4cc(C(=O)Nc5cccc(CC(=O)N[C@@H](CCCCN)C(=O)O)c5)n(C)c4)c3)c2)cc1C(=O)Nc1cccc(CC(=O)N[C@@H](CCCCN)C(=O)O)c1 [Compound 12c, 5,5'-{carbonylbis[imino-3,1-phenylenecarbonylimino(1-methyl-1H-pyrrole-4,2-diyl)carbonylimino-3,1-phenylene(1-oxoethane-2,1-diyl)imino]}bis(1-aminium-6-hexanoic acid) trifluoroacetate salt] | 1 to 20
3 | CC(NC(=O)Cc1cccc(NC(=O)c2cc(NC(=O)c3cccc(NC(=O)Nc4cccc(C(=O)Nc5cc(C(=O)Nc6cccc(CC(=O)NC(C)C(=O)O)c6)n(C)c5)c4)c3)cn2C)c1)C(=O)O (stereo not drawn) [Compound 12d, 2,2'-{carbonylbis[imino-3,1-phenylenecarbonylimino(1-methyl-1H-pyrrole-4,2-diyl)carbonylimino-3,1-phenylene(1-oxoethane-2,1-diyl)imino]}dipropanoic acid] | 1 to 20
4 | Cn1cc(NC(=O)c2cccc(NC(=O)Nc3cccc(C(=O)Nc4cc(C(=O)Nc5cccc(CC(=O)N[C@@H](CCC(=O)O)C(=O)O)c5)n(C)c4)c3)c2)cc1C(=O)Nc1cccc(CC(=O)N[C@@H](CCC(=O)O)C(=O)O)c1 [Compound 12f, 2,2'-{carbonylbis[imino-3,1-phenylenecarbonylimino(1-methyl-1H-pyrrole-4,2-diyl)carbonylimino-3,1-phenylene(1-oxoethane-2,1-diyl)imino]}dipentandioic acid] | 1 to 20
5 | Cn1cc(NC(=O)c2cccc(NC(=O)Nc3cccc(C(=O)Nc4cc(C(=O)Nc5cccc(CC(=O)O)c5)n(C)c4)c3)c2)cc1C(=O)Nc1cccc(CC(=O)O)c1 [Compound 12h, 2,2'-(((4,4'-((3,3'-(Carbonylbis(azanediyl))bis(benzoyl))bis(azanediyl))bis(1-methyl-1H-pyrrole-4,2-diyl-2-carbonyl))bis(azanediyl))bis(3,1-phenylene))diacetic acid] | 1 to 20
6 | Cn1cc(NC(=O)c2cccc(NC(=O)Nc3cccc(C(=O)Nc4cc(C(=O)Nc5ccc(CC(=O)O)cc5)n(C)c4)c3)c2)cc1C(=O)Nc1ccc(CC(=O)O)cc1 [Compound 12j, 2,2'-(((4,4'-((3,3'-(carbonylbis(azanediyl))bis(benzoyl))bis(azanediyl))bis(1-methyl-1H-pyrrole-2,2'-carbonyl))bis(azanediyl))bis(4,1-phenylene))diacetic acid] | 1 to 20
7 | Cn1cc(NC(=O)c2cccc(NC(=O)Nc3cccc(C(=O)Nc4cc(C(=O)Nc5cccc(CC(=O)NCC(=O)NCC(=O)O)c5)n(C)c4)c3)c2)cc1C(=O)Nc1cccc(CC(=O)NCC(=O)NCC(=O)O)c1 [Compound 13b, Disodium 2,2'-{carbonylbis[imino-3,1-phenylenecarbonylimino(1-methyl-1H-pyrrole-4,2-diyl)carbonylimino-3,1-phenylene(1-oxoethane-2,1-diyl)imino(1-oxoethane-2,1-diyl)imino]}diethanoate salt] | 1 to 20
8 | CC(C)CC(NC(=O)Cc1cccc(NC(=O)c2cc(NC(=O)c3cc(NC(=O)Nc4cc(C(=O)Nc5cc(C(=O)Nc6cccc(CC(=O)NC(CC(C)C)C(=O)O)c6)n(C)c5)n(C)c4)cn3C)cn2C)c1)C(=O)O (stereo not drawn) [Compound 17a, 2,2'-{carbonylbis[imino(1-methyl-1H-pyrrole-4,2-diyl)carbonylimino(1-methyl-1H-pyrrole-4,2-diyl)carbonylimino-3,1-phenylene(1-oxoethane-2,1-diyl)imino]}bis(4-methylpentanoic acid)] | 1 to 20
9 | C[C@H](NC(=O)Cc1cccc(NC(=O)c2cc(NC(=O)c3cc(NC(=O)Nc4cc(C(=O)Nc5cc(C(=O)Nc6cccc(CC(=O)N[C@@H](C)C(=O)O)c6)n(C)c5)n(C)c4)cn3C)cn2C)c1)C(=O)O [Compound 17d, 2,2'-{carbonylbis[imino(1-methyl-1H-pyrrole-4,2-diyl)carbonylimino(1-methyl-1H-pyrrole-4,2-diyl)carbonylimino-3,1-phenylene(1-oxoethane-2,1-diyl)imino]}dipropanoic acid] | 1 to 20
10 | Cn1cc(NC(=O)Nc2cc(C(=O)Nc3cc(C(=O)Nc4cccc(CC(=O)N[C@@H](CCC(=O)O)C(=O)O)c4)n(C)c3)n(C)c2)cc1C(=O)Nc1cc(C(=O)Nc2cccc(CC(=O)N[C@@H](CCC(=O)O)C(=O)O)c2)n(C)c1 [Compound 17f, 2,2'-{carbonylbis[imino-3,1-phenylenecarbonylimino(1-methyl-1H-pyrrole-4,2-diyl)carbonylimino-3,1-phenylene(1-oxoethane-2,1-diyl)imino]}dipentandioic acid] | 1 to 20
11 | Cn1cc(NC(=O)Nc2cc(C(=O)Nc3cc(C(=O)Nc4cccc(CC(=O)N[C@@H](CCCCN)C(=O)O)c4)n(C)c3)n(C)c2)cc1C(=O)Nc1cc(C(=O)Nc2cccc(CC(=O)N[C@@H](CCCCN)C(=O)O)c2)n(C)c1 [Compound 35c, (2S,2'S)-2,2'-((2,2'-(((4,4'-((4,4'-(carbonylbis(azanediyl))bis(1-methyl-1H-pyrrole-4,2-diyl-2-carbonyl))bis(azanediyl))bis(1-methyl-1H-pyrrole-4,2-diyl-2-carbonyl))bis(azanediyl))bis(3,1-phenylene))bis(acetyl))bis(azanediyl))bis(6-aminohexanoic acid) dihydrochloride] | 1 to 20
12 | CC(C)C[C@H](NC(=O)Cc1cccc(NC(=O)c2cc(NC(=O)c3ccc(Oc4ccc(C(=O)Nc5cc(C(=O)Nc6cccc(CC(=O)N[C@@H](CC(C)C)C(=O)O)c6)n(C)c5)cc4)cc3)cn2C)c1)C(=O)O [Compound 36a, (2S,2'S)-2,2'-((2,2'-(((4,4'-((4,4'-Oxybis(benzoyl))bis(azanediyl))bis(1-methyl-1H-pyrrole-2,2'-carbonyl))bis(azanediyl))bis(3,1-phenylene))bis(acetyl))bis(azanediyl))bis(4-methylpentanoic acid)] | 1 to 20
13 | Cn1cc(NC(=O)c2ccc(Oc3ccc(C(=O)Nc4cc(C(=O)Nc5cccc(CC(=O)NCC(=O)O)c5)n(C)c4)cc3)cc2)cc1C(=O)Nc1cccc(CC(=O)NCC(=O)O)c1 [Compound 36b, 2,2'-((2,2'-(((4,4'-((4,4'-Oxybis(benzoyl))bis(azanediyl))bis(1-methyl-1H-pyrrole-2,2'-carbonyl))bis(azanediyl))bis(3,1-phenylene))bis(acetyl))bis(azanediyl))diacetic acid] | 1 to 20
14 | Cn1cc(NC(=O)c2ccc(Oc3ccc(C(=O)Nc4cc(C(=O)Nc5cccc(CC(=O)N[C@@H](CCCCN)C(=O)O)c5)n(C)c4)cc3)cc2)cc1C(=O)Nc1cccc(CC(=O)N[C@@H](CCCCN)C(=O)O)c1 [Compound 36c, (2S,2'S)-2,2'-((2,2'-(((4,4'-((4,4'-oxybis(benzoyl))bis(azanediyl))bis(1-methyl-1H-pyrrole-4,2-diyl-2-carbonyl))bis(azanediyl))bis(3,1-phenylene))bis(acetyl))bis(azanediyl))bis(6-aminohexanoic acid) dihydrochloride] | 1 to 20
15 | C[C@H](NC(=O)Cc1cccc(NC(=O)c2cc(NC(=O)c3ccc(Oc4ccc(C(=O)Nc5cc(C(=O)Nc6cccc(CC(=O)N[C@@H](C)C(=O)O)c6)n(C)c5)cc4)cc3)cn2C)c1)C(=O)O [Compound 36d, (2S,2'S)-2,2'-((2,2'-(((4,4'-((4,4'-Oxybis(benzoyl))bis(azanediyl))bis(1-methyl-1H-pyrrole-2,2'-carbonyl))bis(azanediyl))bis(3,1-phenylene))bis(acetyl))bis(azanediyl))dipropanoic acid] | 1 to 20
